According to patent US20160279175A1, “METHODS FOR REDUCING DEVELOPMENT OF RESISTANCE TO ANTIBIOTICS” (REGENTS OF THE UNIVERSITY OF MINNESOTA, priority 2015, published 2016):
Bridge positions count the residues as written; N and C are the ends. Ends that are not written are not given here.

Columns and labels:
[1] = test system: vancomycin-resistant E. faecium; assay type: cell-based, Enterococcus faecium; details: for synergy of the AMPs with the antibiotic: antibiotic combined with supernatant containing the three AMPs, data not shown; for activity of antibiotic alone against E. faecium: clinically relevant concentrations: 50 μg/mL streptomycin, 100 μg/mL ampicillin, 30 μg/mL rifampicin; for reduction of E. faecium counts, antibiotic combined with the three peptides: combination with Enterocin A, Enterocin P, Hiracin JM79
Experimental: L. lactis containing pNZCA3 was grown overnight in BHI. Cells were then re-inoculated in fresh BHI at an OD600 of 0.07-0.1. Because BHI contains ˜0.15 M NaCl, no additional salt was added for induction. Cells were then grown ˜6 hours then cell-free culture supernatant was obtained by centrifugation of culture at 12,000×g at 4° C. for 10 min, filtered through 0.2 μm pore-size filters (Whatman Int. Ltd., Maidstone, UK), and stored at −20° C. until use.
E. faecium was grown overnight in BHI at 37° C. and L. lactis-pNZCA3 was grown in BHI at 32° C. E. faecium was then inoculated at an OD600 of ˜0.06 into 5 ml fresh BHI broth, and allowed to grow to an OD600 of ˜0.1. For antibiotic experiments, 50 μg/mL streptomycin (Chem-Implex Int'l Inc., Wood Dale, Ill., U.S.A.), 100 μg/mL ampicillin (Sigma), or 30 μg/mL rifampicin (Gilbert et al., 2013, The Sanford Guide to Antimicrobial Therapy 2013 43 Pocth Edition|Rent 9781930808744|11930808747. Antimicrob. Ther.) were added to the fresh BHI broth. Cultures were then supplemented with 10% of the previously obtained supernatant or 10% of L. lactis-pNZCA3 culture at an OD600 of ˜0.1 (time=0 hours). […] Samples of the cultures were then taken at different times, serial diluted, and plated (10 μL of each dilution) on GM17 plates containing 5 μg/mL rifampicin (GM17-Rif) or 5 μg/mL chloramphenicol (GM17-Cm) and incubated overnight at 37° C. The following day E. faecium or L. lactis colony forming units (CFU) were counted on GM17-Rif and GM17-Cm plates, respectively.
Data for FIG. 9 represent technical triplicates obtained from one of three individual tests.

[2] = test system: wild type E. faecium 8E9 and EntA/EntP/HirJM79-resistant mutant of E. faecium 8E9; experiment: Agar diffusion assay of pure Enterocin B; assay type: cell-based, Enterococcus faecium; details: 1 μg and 0.1 μg enterocin B
Experimental: For the agar diffusion activity assays, liquid brain heart infusion (BHI) agar was inoculated with 0.5 μL of E. faecium overnight culture per mL medium. The inoculated agar was then poured into a petri dish and allowed to solidify. For all L. lactis halos, a colony of L. lactis was touched with a sterile pipette tip then stabbed into the inoculated agar. For purified EntB halos (FIG. 14 only), 1 μL of the appropriate EntB concentration was dropped onto the inoculated agar and allowed to dry completely. Dry plates were then covered and incubated overnight at 37° C. for imaging the following day.

Row | Compound | synergy of the AMPs with the antibiotic [1] | activity of antibiotic alone against E. faecium [1] | reduction of E. faecium counts, antibiotic combined with the three peptides [1] | halo size, wild type versus class IIa resistant mutant [2]
1 | CC1(C)S[C@@H]2[C@H](NC(=O)[C@H](N)c3ccccc3)C(=O)N2[C@H]1C(=O)O [ampicillin] | minor | none of these drugs showed significant activity | did not exhibit similarly impressive reductions | 
2 | O=C(N[C@H](CO)[C@H](O)c1ccc([N+](=O)[O-])cc1)C(Cl)Cl [chloramphenicol] |  |  | did not exhibit similarly impressive reductions | 
3 | CC[C@H]1OC(=O)[C@H](C)[C@@H](O[C@H]2C[C@@](C)(OC)[C@@H](O)[C@H](C)O2)[C@H](C)[C@@H](O[C@@H]2O[C@H](C)C[C@H](N(C)C)[C@H]2O)[C@](C)(O)C[C@@H](C)C(=O)[C@H](C)[C@@H](O)[C@]1(C)O [erythromycin] |  |  | did not exhibit similarly impressive reductions | 
4 | [H]/N=C(/N)N[C@H]1[C@H](O)[C@@H](O)[C@H](O[C@@H]2O[C@@H](C)[C@](O)(C=O)[C@H]2O[C@@H]2O[C@@H](CO)[C@H](O)[C@@H](O)[C@@H]2NC)[C@@H](N/C(N)=N\[H])[C@@H]1O [streptomycin] | minor | none of these drugs showed significant activity |  | 
5 | Enterocin B: 53 amino acid bacteriocin of Enterococcus faecium, SEQ ID NO:42, disulfide bridge 23-52, synthesized by Ontores (ENDHRMPNELNRPNNLSKGGAKCGAAIAGGLFGIPKGPLAWAAGLANVYSKCN; disulfide 23-52) |  |  |  | similarly sized halos for both the wild type and resistant mutant
